Experimental data as given in US10660877B2 (BRISTOL-MYERS SQUIBB COMPANY, priority 2016, dated 2020).
pIC50: −log10 of the molar value. Like-named read-outs stand apart in the source and are kept apart here.

Columns and labels:
human TLR7 = human TLR7 (Homo sapiens (Human), UniProt Q9NYK1); experiment: TLR7 inhibition reporter assay (HEK-Blue cells, SEAP reporter, gardiquimod stimulation); assay type: cell-based
human TLR9 = human TLR9 (Homo sapiens (Human), UniProt Q9NR96); experiment: TLR9 inhibition reporter assay (HEK-Blue cells, SEAP reporter, ODN2006 stimulation);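 note: compounds tested over 0.05 nM to 50 µM, 22 h incubation, inhibition taken as SEAP signal drop from agonist plus DMSO wells toward a known inhibitor control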
human TLR8 = human TLR8 (Homo sapiens (Human), UniProt Q9NR97); experiment: TLR8 inhibition reporter assay (HEK-Blue cells, SEAP reporter, R848 stimulation);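 note: compounds tested from 0.05 nM to 50 µM, 22 h at 37 °C, SEAP measured with HEK-Blue Detection, inhibition relative to agonist plus DMSO versus a known inhibitor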
[1] = HEK-Blue cells overexpressing human TLR7, gardiquimod 7.5 μM
[2] = read-out: TLR9 IC50, HEK-Blue cells overexpressing human TLR9, ODN2006 5 nM
[3] = read-out: TLR8 IC50, HEK-Blue cells overexpressing human TLR8, R848 15.9 μM
[4] = TLR9 IC50, HEK-Blue cells overexpressing human TLR9, ODN2006 5 nM
[5] = TLR8 IC50, HEK-Blue cells overexpressing human TLR8, R848 15.9 μM
[6] = HEK-Blue cells, gardiquimod 7.5 μM
[7] = read-out: TLR9 IC50, HEK-Blue cells, ODN2006 5 nM
[8] = read-out: TLR8 IC50, HEK-Blue cells, R848 15.9 μM

Chain of human TLR7 (Q9NYK1 27-1049): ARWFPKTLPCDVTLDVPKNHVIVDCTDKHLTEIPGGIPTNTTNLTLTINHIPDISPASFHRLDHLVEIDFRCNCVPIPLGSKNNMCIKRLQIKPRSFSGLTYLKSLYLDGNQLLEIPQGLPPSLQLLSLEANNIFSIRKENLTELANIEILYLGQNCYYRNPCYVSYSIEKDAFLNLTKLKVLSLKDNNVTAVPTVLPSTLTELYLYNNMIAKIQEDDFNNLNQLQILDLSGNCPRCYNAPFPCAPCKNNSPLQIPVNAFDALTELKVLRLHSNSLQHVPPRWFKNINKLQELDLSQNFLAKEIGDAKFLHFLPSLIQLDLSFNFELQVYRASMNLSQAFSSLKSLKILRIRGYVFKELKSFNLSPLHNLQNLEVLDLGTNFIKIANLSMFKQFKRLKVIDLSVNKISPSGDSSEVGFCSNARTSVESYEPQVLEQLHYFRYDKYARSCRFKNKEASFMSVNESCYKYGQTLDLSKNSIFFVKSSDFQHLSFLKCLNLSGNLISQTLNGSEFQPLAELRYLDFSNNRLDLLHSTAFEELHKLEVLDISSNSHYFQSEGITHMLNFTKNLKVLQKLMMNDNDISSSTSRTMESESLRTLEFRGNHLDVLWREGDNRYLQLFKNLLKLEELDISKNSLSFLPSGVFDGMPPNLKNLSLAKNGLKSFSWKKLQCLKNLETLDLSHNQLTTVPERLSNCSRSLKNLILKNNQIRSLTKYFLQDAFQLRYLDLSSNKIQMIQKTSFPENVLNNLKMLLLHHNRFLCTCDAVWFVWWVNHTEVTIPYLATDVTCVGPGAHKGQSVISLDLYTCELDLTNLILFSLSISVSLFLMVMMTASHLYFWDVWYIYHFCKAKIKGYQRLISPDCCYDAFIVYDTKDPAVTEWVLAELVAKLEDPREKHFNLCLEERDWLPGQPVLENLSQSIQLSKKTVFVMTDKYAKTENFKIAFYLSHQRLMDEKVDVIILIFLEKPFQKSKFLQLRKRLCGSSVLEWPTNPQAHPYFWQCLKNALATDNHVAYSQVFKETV
Chain of human TLR9 (Q9NR96 26-1032): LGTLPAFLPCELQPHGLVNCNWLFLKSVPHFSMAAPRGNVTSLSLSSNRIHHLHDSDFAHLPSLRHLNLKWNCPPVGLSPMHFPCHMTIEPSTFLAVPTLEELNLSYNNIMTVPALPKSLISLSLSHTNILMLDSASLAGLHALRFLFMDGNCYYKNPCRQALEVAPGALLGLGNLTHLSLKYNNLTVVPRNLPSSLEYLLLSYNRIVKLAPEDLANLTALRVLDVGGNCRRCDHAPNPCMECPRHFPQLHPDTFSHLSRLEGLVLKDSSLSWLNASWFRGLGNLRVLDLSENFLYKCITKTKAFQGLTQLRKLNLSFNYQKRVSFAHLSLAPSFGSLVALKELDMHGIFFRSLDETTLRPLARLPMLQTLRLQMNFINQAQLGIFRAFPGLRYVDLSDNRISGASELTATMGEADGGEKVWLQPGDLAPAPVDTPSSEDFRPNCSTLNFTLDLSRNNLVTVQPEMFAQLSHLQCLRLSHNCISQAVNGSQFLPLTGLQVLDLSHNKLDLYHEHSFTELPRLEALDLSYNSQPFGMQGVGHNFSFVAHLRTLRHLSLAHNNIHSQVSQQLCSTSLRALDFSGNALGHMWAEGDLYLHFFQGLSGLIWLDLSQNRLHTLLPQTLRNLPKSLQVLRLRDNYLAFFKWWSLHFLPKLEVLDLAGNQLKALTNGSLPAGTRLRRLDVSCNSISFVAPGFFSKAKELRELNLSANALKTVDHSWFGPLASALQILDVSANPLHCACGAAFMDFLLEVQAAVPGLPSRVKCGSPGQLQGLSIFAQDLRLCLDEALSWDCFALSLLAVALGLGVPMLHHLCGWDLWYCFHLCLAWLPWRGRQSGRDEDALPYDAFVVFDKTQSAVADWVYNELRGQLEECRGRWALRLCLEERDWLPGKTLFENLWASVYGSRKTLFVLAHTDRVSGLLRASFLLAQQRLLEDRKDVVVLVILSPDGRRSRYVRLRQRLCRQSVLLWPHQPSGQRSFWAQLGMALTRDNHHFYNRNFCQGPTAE
Chain of human TLR8 (Q9NR97 27-1041): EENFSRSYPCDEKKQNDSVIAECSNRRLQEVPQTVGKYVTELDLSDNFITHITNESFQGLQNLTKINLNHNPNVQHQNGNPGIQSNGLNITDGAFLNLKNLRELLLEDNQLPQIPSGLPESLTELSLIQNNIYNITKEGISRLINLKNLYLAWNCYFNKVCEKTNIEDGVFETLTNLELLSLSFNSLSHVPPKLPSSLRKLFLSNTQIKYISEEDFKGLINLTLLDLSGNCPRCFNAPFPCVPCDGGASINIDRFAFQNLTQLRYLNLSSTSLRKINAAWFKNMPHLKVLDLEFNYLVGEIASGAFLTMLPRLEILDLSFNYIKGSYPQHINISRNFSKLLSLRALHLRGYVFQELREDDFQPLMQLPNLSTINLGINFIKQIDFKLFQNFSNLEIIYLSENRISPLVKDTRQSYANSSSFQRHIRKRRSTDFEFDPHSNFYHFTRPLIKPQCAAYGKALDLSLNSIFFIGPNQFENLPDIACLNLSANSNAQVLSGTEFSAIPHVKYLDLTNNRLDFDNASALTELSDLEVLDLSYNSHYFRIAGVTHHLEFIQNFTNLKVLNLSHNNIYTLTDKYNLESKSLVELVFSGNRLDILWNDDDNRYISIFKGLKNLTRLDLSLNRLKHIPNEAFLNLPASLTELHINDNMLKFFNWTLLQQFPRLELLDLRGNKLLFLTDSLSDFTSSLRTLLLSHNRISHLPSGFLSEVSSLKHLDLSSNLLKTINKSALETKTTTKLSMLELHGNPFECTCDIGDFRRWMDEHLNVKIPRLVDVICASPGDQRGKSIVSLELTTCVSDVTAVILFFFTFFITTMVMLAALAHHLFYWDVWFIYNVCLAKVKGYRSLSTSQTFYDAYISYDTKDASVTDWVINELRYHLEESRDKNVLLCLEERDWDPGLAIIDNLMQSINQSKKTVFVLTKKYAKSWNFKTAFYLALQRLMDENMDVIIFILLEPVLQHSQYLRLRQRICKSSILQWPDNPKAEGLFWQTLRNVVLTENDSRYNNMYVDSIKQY

SMILES	pIC50 (human TLR7; [1])	pIC50 (human TLR9; [2])	pIC50 (human TLR8; [3])	pIC50 (human TLR9; [4])	pIC50 (human TLR8; [5])	pIC50 (human TLR7; [6])	pIC50 (human TLR9; [7])	pIC50 (human TLR8; [8])
Cc1cc(-c2[nH]c3ccc(C4CCN(C(=O)C5CCOCC5)CC4)cc3c2C(C)C)ccn1 [Example 597, (4-(3-isopropyl-2-(2-methylpyridin-4-yl)-1H-indol-5-yl)piperidin-1-yl)(tetrahydro-2H-pyran-4-yl)methanone]	7.34	4.57	6.93	–	–	–	–	–
Cc1cc(-c2[nH]c3ccc(C4CCN(C(=O)C(F)F)CC4)cc3c2C(C)C)cc(C)n1 [Example 105, 1-(4-(2-(2,6-dimethylpyridin-4-yl)-3-isopropyl-1H-indol-5-yl)piperidin-1-yl)-2,2-difluoroethan-1-one]	8.48	–	–	4.92	7.66	–	–	–
Cc1cc(-c2[nH]c3ccc(C4CCN(CC(C)C)CC4)cc3c2C(C)C)c(C)cn1 [Example 666, 2-(2,5-dimethylpyridin-4-yl)-5-(1-isobutylpiperidin-4-yl)-3-isopropyl-1H-indole]	8.24	6.02	8.59	–	–	–	–	–
Cc1cc(-c2[nH]c3ccc(C4CCN(C(=O)Cn5ccnn5)CC4)cc3c2C(C)C)cc(C)n1 [Example 158, 1-(4-(2-(2,6-dimethylpyridin-4-yl)-3-isopropyl-1H-indol-5-yl)piperidin-1-yl)-2-(1H-1,2,3-triazol-1-yl)ethan-1-one]	8.22	5.24	7.07	–	–	–	–	–
CNCCN1CCC(c2ccc3[nH]c(-c4ccnc(C)c4)c(C)c3c2)CC1 [Example 815, N-methyl-2-(4-(3-methyl-2-(2-methylpyridin-4-yl)-1H-indol-5-yl)piperidin-1-yl)ethan-1-amine]	–	–	–	–	–	6.91	6.50	7.13
Cc1cc(-c2[nH]c3ccc(C4CCN(CC(=O)NC5(C)COC5)CC4)cc3c2C(C)C)cc(C)n1 [Example 233, 2-(4-(2-(2,6-dimethylpyridin-4-yl)-3-isopropyl-1H-indol-5-yl)piperidin-1-yl)-N-(3-methyloxetan-3-yl)acetamide]	8.20	6.01	8.19	–	–	–	–	–
Cc1cc(-c2[nH]c3ccc(C4CCN(CCCO)CC4)cc3c2C(C)C)cc(C)n1 [Example 311, 3-(4-(2-(2,6-dimethylpyridin-4-yl)-3-isopropyl-1H-indol-5-yl)piperidin-1-yl)propan-1-ol]	8.74	6.57	8.60	–	–	–	–	–
Cc1cc(-c2[nH]c3ccc(C4CCN(Cc5ccn(C)n5)CC4)cc3c2C(C)C)c(F)cn1 [Example 692]	7.99	5.83	9.05	–	–	–	–	–
Cc1cc(-c2[nH]c3cc(F)c(C4CCN(C5CC(C)OC(C)C5)CC4)cc3c2C(C)C)cc(C)n1 (stereo not drawn) [Example 833, 2-(2,6-dimethylpyridin-4-yl)-5-(1-(2,6-dimethyltetrahydro-2H-pyran-4-yl)piperidin-4-yl)-6-fluoro-3-isopropyl-1H-indole]	–	–	–	–	–	8.03	6.25	7.53
Cc1cc(-c2[nH]c3ccc(C4CCN(C(=O)CN5CC[C@H](N)C5=O)CC4)cc3c2C(C)C)cc(C)n1 [Example 188, (S)-3-amino-1-(2-(4-(2-(2,6-dimethylpyridin-4-yl)-3-isopropyl-1H-indol-5-yl)piperidin-1-yl)-2-oxoethyl)pyrrolidin-2-one]	8.68	6.01	7.89	–	–	–	–	–
CCc1c(-c2cc(F)nc(F)c2)[nH]c2ccc(C3CCN(C4CCN(CC(C)C)CC4)CC3)cc12 [Example 761, 2-(2,6-difluoropyridin-4-yl)-3-ethyl-5-(1′-isobutyl-[1,4′-bipiperidin]-4-yl)-1H-indole]	5.37	6.10	6.43	–	–	–	–	–
Cc1cc(-c2[nH]c3ccc(C4CCNCC4)cc3c2C(C)C)c(C)c(C)n1 [Example 39, 3-isopropyl-5-(piperidin-4-yl)-2-(2,3,6-trimethylpyridin-4-yl)-1H-indole]	8.14	6.02	7.65	–	–	–	–	–
Cc1cc(-c2[nH]c3ccc(C4CCN(Cc5c[nH]c(C)n5)CC4)cc3c2CC(F)F)cc(C)n1 [Example 538, 3-(2,2-difluoroethyl)-2-(2,6-dimethylpyridin-4-yl)-5-(1-((2-methyl-1H-imidazol-4-yl)methyl)piperidin-4-yl)-1H-indole]	7.40	7.16	7.46	–	–	–	–	–
FC(F)Cc1c(-c2ccnc(Cl)c2)[nH]c2ccc(C3CCNCC3)cc12 [Example 494, 2-(2-chloropyridin-4-yl)-3-(2,2-difluoroethyl)-5-(piperidin-4-yl)-1H-indole]	7.44	5.69	7.18	–	–	–	–	–
CCC(CC)C(=O)N1CCC(c2ccc3[nH]c(-c4cc(C)nc(C)c4)c(C(C)C)c3c2)CC1 [Example 104, 1-(4-(2-(2,6-dimethylpyridin-4-yl)-3-isopropyl-1H-indol-5-yl)piperidin-1-yl)-2-ethylbutan-1-one]	7.83	4.92	6.60	–	–	–	–	–
Cc1cc(-c2[nH]c3ccc(C4CCN(CC(=O)N5CCC[C@H](O)C5)CC4)cc3c2C(C)C)cc(C)n1 [Example 210, (S)-2-(4-(2-(2,6-dimethylpyridin-4-yl)-3-isopropyl-1H-indol-5-yl)piperidin-1-yl)-1-(3-hydroxypiperidin-1-yl)ethan-1-one]	8.70	–	–	6.65	8.21	–	–	–
Cc1cc(-c2[nH]c3ccc(C4CCN(C(=O)c5ccc6n(c5=O)CCC6)CC4)cc3c2C(C)C)cc(C)n1 [Example 144, 6-(4-(2-(2,6-dimethylpyridin-4-yl)-3-isopropyl-1H-indol-5-yl)piperidine-1-carbonyl)-2,3-dihydroindolizin-5(1H)-one]	7.70	< 4.30	6.77	–	–	–	–	–
CC(C)c1c(-c2c(Cl)cncc2Cl)[nH]c2ccc(C3CCNCC3)cc12 [Example 20, 2-(3,5-dichloropyridin-4-yl)-3-isopropyl-5-(piperidin-4-yl)-1H-indole]	5.78	5.11	6.89	–	–	–	–	–
Cc1cc(-c2[nH]c3ccc(C4CCN(CC(=O)NC5(C)CCOCC5)CC4)cc3c2C(C)C)cc(C)n1 [Example 267, 2-(4-(2-(2,6-dimethylpyridin-4-yl)-3-isopropyl-1H-indol-5-yl)piperidin-1-yl)-N-(4-methyltetrahydro-2H-pyran-4-yl)acetamide]	8.59	6.46	7.95	–	–	–	–	–
Cc1cc(-c2[nH]c3ccc(C4CCN(Cc5ccn[nH]5)CC4)cc3c2C(C)C)c(C)cn1 [Example 681, 5-(1-((1H-pyrazol-5-yl)methyl)piperidin-4-yl)-2-(2,5-dimethylpyridin-4-yl)-3-isopropyl-1H-indole]	7.81	5.82	9.22	–	–	–	–	–
Cc1cc(-c2[nH]c3ccc(C4CCN(C(=O)Cn5nnc(N6CCOCC6)n5)CC4)cc3c2C(C)C)cc(C)n1 [Example 149, 1-(4-(2-(2,6-dimethylpyridin-4-yl)-3-isopropyl-1H-indol-5-yl)piperidin-1-yl)-2-(5-morpholino-2H-tetrazol-2-yl)ethan-1-one]	7.67	4.79	6.84	–	–	–	–	–
CNCCN1CCC(c2ccc3[nH]c(-c4cc(C)nc(C)c4)c(C(C)C)c3c2)CC1 [Example 428, 2-(4-(2-(2,6-dimethylpyridin-4-yl)-3-isopropyl-1H-indol-5-yl)piperidin-1-yl)-N-methylethan-1-amine]	8.72	–	–	6.92	8.72	–	–	–
Cc1cc(-c2[nH]c3ccc(C4CCN(CCCN(C)C)CC4)cc3c2C(C)C)ccn1 [Example 669, 3-(4-(3-isopropyl-2-(2-methylpyridin-4-yl)-1H-indol-5-yl)piperidin-1-yl)-N,N-dimethylpropan-1-amine]	8.59	6.66	8.72	–	–	–	–	–
Cc1cc(-c2[nH]c3ccc(C4CCN(Cc5nnn[nH]5)CC4)cc3c2C(C)C)c(C)cn1 [Example 695, 5-(1-((1H-tetrazol-5-yl)methyl)piperidin-4-yl)-2-(2,5-dimethylpyridin-4-yl)-3-isopropyl-1H-indole]	5.88	< 4.30	6.95	–	–	–	–	–
Cc1cc(-c2[nH]c3ccc(C4CCN(Cc5ncon5)CC4)cc3c2C(C)C)c(F)cn1 [Example 735, 3-((4-(2-(5-fluoro-2-methylpyridin-4-yl)-3-isopropyl-1H-indol-5-yl)piperidin-1-yl)methyl)-1,2,4-oxadiazole]	7.65	< 4.30	7.30	–	–	–	–	–
Cc1cc(-c2[nH]c3ccc(C4CCN(C(=O)CNCCO)CC4)cc3c2C(C)C)cc(C)n1 [Example 336, 1-(4-(2-(2,6-dimethylpyridin-4-yl)-3-isopropyl-1H-indol-5-yl)piperidin-1-yl)-2-((2-hydroxyethyl)amino)ethan-1-one]	8.82	6.57	8.01	–	–	–	–	–
Cc1cc(-c2[nH]c3ccc(C4CCN(C(=O)c5cccnc5)CC4)cc3c2C(C)C)cc(C)n1 [Example 112, (4-(2-(2,6-dimethylpyridin-4-yl)-3-isopropyl-1H-indol-5-yl)piperidin-1-yl)(pyridin-3-yl)methanone]	8.21	4.80	7.00	–	–	–	–	–
Cc1cc(-c2[nH]c3cc(F)c(C4CCNCC4)cc3c2C(C)C)c(F)cn1 [Example 79, 6-fluoro-2-(5-fluoro-2-methylpyridin-4-yl)-3-isopropyl-5-(piperidin-4-yl)-1H-indole]	8.82	5.87	8.70	–	–	–	–	–
